{"source": "patent US8093273B2", "about": "“Flavanoids and isoflavanoids for the prevention and treatment of cardiovascular diseases” (Resverlogix Corp., priority 2004, dated 2012)", "key": {"ApoA-I protein": {"tested_on": "ApoA-I protein", "assay": "ApoA-I protein expression in HepG2 cells (ELISA of conditioned media)", "type": "cell-based, human", "settings": "7.5 μM", "method": "This study confirmed that compounds of the invention have an effect on ApoA-I protein secretion in HepG2 (liver) cells by measuring whether stimulation of transcriptional activity of the endogenous ApoA-I promoter in the HepG2 cells increased the abundance and secretion of ApoA-I protein.\nThe HepG2 cell line was obtained from the ATCC and cultured in MEM media supplemented with 10% FBS (Gibco), with 1 mM sodium pyruvate, 0.1 mM MEM non-essential amino acid, 2 mM L-glutamine, 100 U/ml penicillin, 100 μg/ml streptomycin and 5 μg/ml plasmocin. Cells were maintained at 37° C. in an atmosphere of 5% CO2 Cells were grown to 85% confluency prior to initiating the experiment.\nCells were plated and allowed to adhere overnight in a phenol red-free DMEM containing 10% of Charcoal/Dextran treated FBS (Hyclone), with 1 mM sodium pyruvate, 0.1 mM MEM non-essential amino acid, 2 mM L-glutamine, 100 U/ml penicillin, 100 μg/ml streptomycin and 5 μg/ml plasmocin. The medium was removed, and cells were washed in 1×PBS. Cells were then starved in phenol red-free DMEM (serum free) for a period of 24 hours. Cells were then mock treated (untreated, DMSO), or treated with compound of the invention diluted in phenol red-free DMEM (serum free) media at a concentration of 7.5 μM. Cells and media were harvested at 0, 6 and 24 hours following compound treatment.\nMedium was removed from cells at the desired times and applied to a solid phase capture sandwich in an ELISA assay according to manufacturer's instructions (Total human Apolipoprotein ELISA Assay-Alercheck)."}, "human ApoA-I promoter": {"tested_on": "human ApoA-I promoter", "assay": "ApoA-I promoter induction in Caco-2 intestinal cells (pAI.474-Luc luciferase reporter)", "type": "cell-based", "settings": "Caco-2 cells, 15 μM, 48 hours incubation, luciferase activity vs control samples", "method_in_brief": "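Caco-2 cells stably carrying the human ApoA-I promoter–firefly luciferase construct (pAI.474-Luc) were starved 24 h in 0.5% FBS medium, then exposed to compound at 0 to 100 μM final for 48 h at 37° C. Luciferase activity in lysates was normalized to Bradford protein and compared with solvent-only and untreated controls.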"}}}
{"smiles": "O=c1cc(-c2ccc(O)cc2)oc2ncccc12", "note": "[Example 34, 2-(4-Hydroxy-phenyl)-pyrano[2,3-b]pyridin-4-one]", "values": [{"measurement": "ApoA-I content in the medium (ELISA)", "setting": "ApoA-I protein; 6 and 24 hours, vs untreated cells and cells treated with solvent", "result": "increased significantly"}, {"measurement": "time after addition of compound at which ApoA-I levels in the medium start to increase", "setting": "ApoA-I protein; time course 0, 6, 24 hours", "result": "~6", "unit": "h"}, {"measurement": "ApoA-I Promoter Induction", "setting": "human ApoA-I promoter", "result": "increased"}]}
